From publication PMC4778124, “A continuous sirtuin activity assay without any coupling to enzymatic or chemical reactions” (Scientific Reports, 2016)
Non-standard residues stand in square brackets, D forms with d. Residues, ends and D or L forms follow the SMILES beside them. Groups on a side chain read outwards from the residue. Lys(thiomyristoyl) = CCCCCCCCCCCCCC(=S)NCCCC[C@H](N)C(=O)O; Tyr(3-NO2) = N[C@@H](Cc1ccc(O)c([N+](=O)[O-])c1)C(=O)O; Aun = NCCCCCCCCCCC(=O)O; 2Abz = Nc1ccccc1C(=O)O

Tests used:
Type in all cases: biochemical
Sirt3 [1] = target: T1, Sirt3 (Homo sapiens, UniProt Q9NTG7); experiment: Ki determination with substrate 3, 96-well MTP fluorescence reader; settings: Sirt3 0.1 µM; varying substrate 3, 500 µM NAD+ (saturating)
T1 construct: made in house
T1 sequence (Q9NTG7 1-399): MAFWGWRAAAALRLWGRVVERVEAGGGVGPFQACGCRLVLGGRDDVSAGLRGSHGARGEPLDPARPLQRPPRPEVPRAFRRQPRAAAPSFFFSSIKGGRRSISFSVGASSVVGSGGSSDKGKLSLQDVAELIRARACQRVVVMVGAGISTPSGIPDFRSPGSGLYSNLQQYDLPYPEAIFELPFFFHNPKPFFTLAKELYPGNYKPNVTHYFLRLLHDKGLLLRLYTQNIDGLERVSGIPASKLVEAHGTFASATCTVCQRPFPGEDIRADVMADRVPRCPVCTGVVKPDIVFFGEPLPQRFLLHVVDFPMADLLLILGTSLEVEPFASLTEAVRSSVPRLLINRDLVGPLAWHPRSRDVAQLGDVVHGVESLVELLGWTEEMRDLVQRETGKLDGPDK
Description: (§1) All measurements were done in duplicates.
(§2) Supplementary Figure S13. […] Data are presented as mean ± s.d. (n=2) and lines represent the Michaelis-Menten-plot (left) and secondary plots (right). The apparent KM or Vmax^app-1 values from v/[S] characteristics were plotted against the corresponding inhibitor concentration.
(§3) Supplementary Figure S15. Kinetic characteristics for sirtuin inhibitor 8. The reactions were performed with 0.01 µM Sirt2 /0.1 µM Sirt3 /0.5 µM Sirt6 and 500 µM NAD^+ and varying concentrations of 3 (0.07-100 µM). […] Data are presented as mean ± s.d. (n=2) and lines represent the Michaelis-Menten-plot (left) and secondary plots (right). The apparent Vmax^app-1 values from v/[S] characteristics were plotted against the corresponding inhibitor concentration.

Sirt6 [2] = target: T2, Sirt6 (Homo sapiens, UniProt Q8N6T7); experiment: as above; settings: Sirt6 0.5 µM; varying substrate 3, 500 µM NAD+ (saturating)
T2 construct: His-tag; made in house; host or cells: E. coli BL21 DE3
Description: as §1, §2
Supplementary Figure S14. […] The reactions were performed with 0.5 µM Sirt6 and either 500 µM NAD^+ and varying concentrations of 3 (2-100 µM). […] Data are presented as mean ± s.d. (n=2) and lines represent the Michaelis-Menten-plot (left) and secondary plots (right). The apparent Vmax^app-1 values from v/[S] characteristics were plotted against the corresponding inhibitor concentration.
as §3

Sirt6 [3] = target: T2, Sirt6; experiment: Isomer specific inhibition by thioxo peptides, HPLC; settings: substrate 2a, 30 min, 20 °C
Description: After 30 min incubation at 20 °C reaction was stopped using 10% TFA solution. Inhibitor solutions were irradiated at 254 nm for 5 min. Separated isomers were applied in concentrations from 1 to 10 μM. The influence of cis content on sirtuin inhibition using fluorescence spectrometer was determined with 500 μM NAD^+, 5 μM 3, 0.1 μM Sirt2 and 0.1 μM 9. Reactions were done at 20 °C with 9 in GS and PSS (after 5 min irradiation at 254 nm). 9 in PSS was applied immediately after irradiation (transfer time ~5 s) and started directly by adding sirtuin. Reactions were measured within 1 min to avoid re-isomerization.
Supplementary Figure S36. Determination of IC50 value of 8 for Sirt6 in GS (?) and PSS (π). Data were fitted with U(%) = Umin(%) + (Umax(%) – Umin(%))/(1+10^(x-logIC50)) with U(%) percental turmover of substrate 2a; Umin(%) lowest turnover of substrate; Umax(%) maximal turnover of substrate (n=3).
Supplementary Figure S37. Inhibition of Sirt6 by 8 (?) and 9 (π).Data were fitted with U(%) = Umin(%) + (Umax(%) – Umin(%))/(1+10^(x-logIC50)) with U(%) percental turmover of substrate; Umin(%) lowest turnover of substrate 2a; Umax(%) maximal turnover of substrate (n=3).
Supplementary Figure S38. Determination of IC50 of 9 for Sirt6 with 72.4 % cis- (π) and 70.3 % (?) trans-content. Measurements were done with 10 µM peptide substrate (big figure) or 30 µM (small figure). Data were fitted with U(%) = Umin(%) + (Umax(%) – Umin(%))/(1+10^(x-logIC50)) with U(%) percental turmover of substrate 2a; Umin(%) lowest turnover of substrate; Umax(%) maximal turnover of substrate (n=3).

Sirt2 = target: T3, Sirt2 (Homo sapiens, UniProt Q8IXJ6); experiment: Ki determination with substrate 3, 96-well MTP fluorescence reader; settings: Sirt2 0.01 µM; varying substrate 3, 500 µM NAD+; read-out: Ki (3)
T3 construct: made in house
T3 sequence (Q8IXJ6 1-389): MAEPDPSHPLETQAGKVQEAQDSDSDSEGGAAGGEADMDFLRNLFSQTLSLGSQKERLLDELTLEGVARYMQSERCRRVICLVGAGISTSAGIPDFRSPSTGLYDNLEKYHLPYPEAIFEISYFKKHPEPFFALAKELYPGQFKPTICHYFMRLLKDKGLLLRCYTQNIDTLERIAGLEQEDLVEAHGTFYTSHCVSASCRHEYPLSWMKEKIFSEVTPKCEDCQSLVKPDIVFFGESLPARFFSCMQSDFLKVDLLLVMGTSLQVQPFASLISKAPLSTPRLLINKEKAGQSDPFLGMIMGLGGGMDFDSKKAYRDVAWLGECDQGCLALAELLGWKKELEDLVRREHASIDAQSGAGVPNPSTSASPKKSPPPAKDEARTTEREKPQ
Description: The microtiter plate fluorescence measurements were performed on a Tecan Infinite M200 microplate reader (Maennedorf, Switzerland) at λEx = 320 nm and λEm = 408 nm (lag time 9 μs, integration time […], gain 160, 170 or 182). The reactions (total volume 100 μl) were measured in black low-binding 96-well microtiter plates (NUNC). Assay-buffer, 500 μM NAD^+ and 0.07–200 μM peptide substrate were pre-incubated at 37 °C for 5 min. The reaction was started by adding human sirtuin (0.01–0.5 μM). The signals were converted into product concentration via calibration lines and the resulting data were evaluated as described above (single fluorescence measurement). The determination for the kinetic constants of NAD^+ was performed in the same way, except that the peptide concentration was fixed (5, 25 or 200 μM) and the NAD^+ concentration was varied (10–1500 μM). All measurements were done in duplicates. The reaction mixture for the calibration lines was prepared as described for the single fluorescence measurements. […] The resulting plots were analyzed by a competitive inhibition and non-competitive inhibition model using the program Sigma Plot 8. The linear regression of the apparent KM-values against the corresponding inhibitor concentration yielded the inhibitor constant Ki for competitive inhibition. The Ki for non-competitive inhibition was determined by linear regression of 1/apparent Vmax against the corresponding inhibitor concentration. The negative Ki value can be determined as intersection with the X-axis from these plots.
Supplementary Figure S15. Kinetic characteristics for sirtuin inhibitor 8. The reactions were performed with 0.01 µM Sirt2 /0.1 µM Sirt3 /0.5 µM Sirt6 and 500 µM NAD^+ and varying concentrations of 3 (0.07-100 µM). […] The negative Ki value can be determined as intersection with the X-axis from the Vmax^app-1/I plot.
Supplementary Figure S16. […] The negative Ki value can be determined as intersection with the X-axis from the Vmax^app-1/I plot.
Supplementary Figure S17. […] The negative Ki value can be determined as intersection with the X-axis from the Vmax^app-1/I plot.

Sirt3 [4] = target: T1, Sirt3; experiment: Continuous fluorescence assay, substrate kinetics; settings: Sirt3 100 nM; fluorescence spectrophotometer (footnote a)
Description: (§4) The fluorescence measurements were performed on a Hitachi F-4500 fluorescence spectrophotometer (Tokyo, Japan) at λEx = 310 nm and λEm = 405 nm (slitEx = 5 nm, slitEm = 2.5 nm, PMT = 700 V for 3, 4 and 5 as well as slitEx = 10 nm, slitEm = 10 nm, PMT = 950 V for 4a). Each reaction mixture contained assay-buffer, 0.5 mM NAD^+ and various peptide concentrations (0.1–100 μM) and was preincubated for 5 minutes at 37 °C. The reaction was started by adding human sirtuin (0.1–0.5 μM) and observed for 5–10 minutes. Product formation could be monitored by increase of relative fluorescence. This signal was converted into product concentration via calibration lines. […] The reaction mixture was analyzed with HPLC, to control if the entire peptide substrate was turned to product. Additionally the mixture was diluted (0.1–25 μM) and measured with Hitachi F-4500 fluorescence spectrophotometer at the same conditions as described above.
(§5) The microtiter plate fluorescence measurements were performed on a Tecan Infinite M200 microplate reader (Maennedorf, Switzerland) at λEx = 320 nm and λEm = 408 nm (lag time 9 μs, integration time […], gain 160, 170 or 182). The reactions (total volume 100 μl) were measured in black low-binding 96-well microtiter plates (NUNC). […] The reaction mixture for the calibration lines was prepared as described for the single fluorescence measurements. […]

Sirt5 = target: T4, Sirt5 (Homo sapiens, UniProt Q9NXA8); experiment: Continuous fluorescence assay, substrate kinetics; settings: Sirt5 500 nM; MTP fluorescence reader (footnote b)
T4 construct: made in house
T4 sequence (Q9NXA8 37-310): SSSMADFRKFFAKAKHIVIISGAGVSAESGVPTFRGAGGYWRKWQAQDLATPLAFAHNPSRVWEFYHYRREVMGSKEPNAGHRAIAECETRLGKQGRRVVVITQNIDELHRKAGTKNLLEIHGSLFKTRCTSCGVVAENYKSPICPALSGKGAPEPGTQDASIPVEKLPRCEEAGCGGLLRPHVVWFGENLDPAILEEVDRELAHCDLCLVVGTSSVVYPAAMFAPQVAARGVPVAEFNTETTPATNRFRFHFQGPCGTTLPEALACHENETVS
Description: as §4, §5

Sirt4 = target: T5, Sirt4 (Homo sapiens, UniProt Q9Y6E7); experiment: Continuous fluorescence assay, substrate kinetics; settings: Sirt4 1000 nM; fluorescence spectrophotometer (footnote a)
T5 construct: made in house; host or cells: E. coli BL21 (DE3)
T5 sequence (Q9Y6E7 29-314): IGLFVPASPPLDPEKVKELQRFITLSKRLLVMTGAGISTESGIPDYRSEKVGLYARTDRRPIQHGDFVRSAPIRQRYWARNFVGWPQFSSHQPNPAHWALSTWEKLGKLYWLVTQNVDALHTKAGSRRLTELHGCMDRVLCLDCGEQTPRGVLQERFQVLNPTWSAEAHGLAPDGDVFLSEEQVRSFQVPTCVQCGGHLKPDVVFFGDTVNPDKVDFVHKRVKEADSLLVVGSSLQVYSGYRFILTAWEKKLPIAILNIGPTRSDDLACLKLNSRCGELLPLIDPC
Description: as §4, with “The reaction was started by adding human sirtuin (0.1–0.5 μM) and observed for 5–10 minutes.” left out, “lines. The slope of the linear regression of product formation against time yielded the reaction velocity rates in μM/s.” for “lines.”
as §5

T2 sequence (Q8N6T7 whole entry): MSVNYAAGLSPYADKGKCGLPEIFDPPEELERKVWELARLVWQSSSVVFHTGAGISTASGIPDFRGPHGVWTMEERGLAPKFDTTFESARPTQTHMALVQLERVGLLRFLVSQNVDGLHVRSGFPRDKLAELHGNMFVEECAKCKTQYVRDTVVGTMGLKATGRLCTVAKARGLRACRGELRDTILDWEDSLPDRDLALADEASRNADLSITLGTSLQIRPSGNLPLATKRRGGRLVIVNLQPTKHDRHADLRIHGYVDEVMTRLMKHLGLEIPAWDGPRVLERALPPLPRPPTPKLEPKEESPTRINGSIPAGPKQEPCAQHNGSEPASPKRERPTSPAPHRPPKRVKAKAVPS

Row | SMILES | Ki (Sirt3 [1]) | Ki (Sirt6 [2]) | IC50 (Sirt6 [3]; inhibitor with 2.5% cis isomer (ground state)) | IC50 (Sirt6 [3]; inhibitor with 25% cis isomer (photo-excited state)) | Ki (Sirt2) | Km (Sirt3 [4]) | Km (Sirt5) | Km (Sirt4)
1 | CCCCCCCCCCCCCC(=S)NCCCC[C@H](NC(=O)[C@H](CCCCN)NC(=O)[C@@H]1CCCN1C(=O)[C@H](CC(C)C)NC(=O)[C@H](C)NC(=O)[C@H](CCC(=O)O)NC(C)=O)C(=O)N[C@H](C(=O)NCC(=O)NCC(N)=O)[C@@H](C)O [peptide 8] (Ac-EALPK[Lys(thiomyristoyl)]TGG-NH2) | 100 ± 20 nM | 400 ± 100 nM | 1060 ± 120 nM | 1870 ± 180 nM | 80 ± 20 nM | – | – | –
2 | CC(=O)N[C@@H](CCC(=O)O)C(=O)N[C@@H](C)C(=O)N[C@@H](CC(C)C)C(=O)N1CCC[C@H]1C(=O)N[C@@H](CCCCN)C(=O)N[C@@H](CCCCNC(=O)CCCCCCCCCCNC(=O)c1ccccc1N)C(=O)N[C@@H](Cc1ccc(O)c([N+](=O)[O-])c1)C(=O)NCC(=O)NCC(N)=O [peptide 3] (Ac-EALPKK([Aun-2Abz])[Tyr(3-NO2)]GG-NH2) | – | – | – | – | – | 3.3 ± 0.4 µM | 46.1 ± 7.2 µM | 49.5 ± 7.5 µM
